Data from patent US20080009534A1, “S[…] DERIVATIVES USEFUL AS AN[…] A[…] AND METHOD” (Bristol-Myers Squibb Company, priority 2006, published 2008).

Columns and labels:
[1] = molecular target: T1, human PPARα receptor (Homo sapiens, UniProt Q07869); test: In vitro PPAR agonist functional assay, GAL4-hPPARα-LBD transactivation in HEK293 cells (luciferase); format: cell-based; conditions: for EC50: GAL4-hPPARα-LBD in HEK293 cells, half-maximal fold induction; for Emax at 1 µM: HEK293, activity at 1 μM relative to GW2331 at 1 μM, read-out: PPARα % efficacy (intrinsic activity)
T1 construct: transiently transfecting GAL4-hPPARα-LBD or GAL4-hPPARγ-LBD constructs; expressed in transfected cells; host or cells: HEK293 cells stably expressing 5×GAL4RE-Luciferase
T1 sequence (Q07869 239-466 limits assumed): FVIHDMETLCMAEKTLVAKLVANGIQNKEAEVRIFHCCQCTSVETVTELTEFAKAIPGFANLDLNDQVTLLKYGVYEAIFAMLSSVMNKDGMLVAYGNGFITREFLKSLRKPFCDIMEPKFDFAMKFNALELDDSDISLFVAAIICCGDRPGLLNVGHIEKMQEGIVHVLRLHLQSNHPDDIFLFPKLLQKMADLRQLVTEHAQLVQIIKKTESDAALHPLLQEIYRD
Procedure: (§1) In vitro PPAR agonist functional assays were performed by transiently transfecting GAL4-hPPARα-LBD or GAL4-hPPARγ-LBD constructs respectively into HEK293 (human embryonic kidney) cells stably expressing 5×GAL4RE-Luciferase. Data were normalized for efficacy at 1 μM to known agonists (BRL-49653 for hPPARγ and GW-233 1 for hPPARα). Agonist binding results in an increase in luciferase enzyme activity which can be monitored by measuring luminescence upon cell lysing and the addition of luciferin substrate. EC50 values (μM) for PPARα or γ agonist activity were calculated as the concentration of the test ligand (μM) required for the half-maximal fold induction of HEK293 cells. The “intrinsic activity” of a test ligand is defined as its activity at 1 μM (expressed as a percentage) relative to the activity of the primary standards (GW2331 for PPARα and BRL-49653/rosiglitazone for PPARγ respectively, both tested at 1 μM). […] The ratios of the PPARα:PPARγ EC50 values of compounds of formula I are between 1:2 and 2:1 in this functional assay.

[2] = molecular target: T2, human PPARγ receptor (Homo sapiens, UniProt P37231); test: In vitro PPAR agonist functional assay, GAL4-hPPARγ-LBD transactivation in HEK293 cells (luciferase); format: cell-based; conditions: for EC50: GAL4-hPPARγ-LBD in HEK293 cells, half-maximal fold induction; for Emax at 1 µM: HEK293, activity at 1 μM relative to BRL-49653/rosiglitazone at 1 μM, read-out: PPARγ % efficacy (intrinsic activity)
T2 construct: transiently transfecting GAL4-hPPARα-LBD or GAL4-hPPARγ-LBD constructs; expressed in transfected cells; host or cells: HEK293 cells stably expressing 5×GAL4RE-Luciferase
T2 sequence (P37231 238-503 limits assumed): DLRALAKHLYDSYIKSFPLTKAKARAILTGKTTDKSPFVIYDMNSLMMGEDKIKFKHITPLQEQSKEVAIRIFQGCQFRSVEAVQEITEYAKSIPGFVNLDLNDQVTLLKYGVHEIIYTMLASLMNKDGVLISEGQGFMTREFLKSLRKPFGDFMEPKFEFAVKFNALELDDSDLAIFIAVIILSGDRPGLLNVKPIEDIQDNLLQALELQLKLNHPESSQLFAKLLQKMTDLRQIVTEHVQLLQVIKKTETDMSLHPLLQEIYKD
Procedure: as §1

[3] = system: db/db mice; test: db/db mouse model, plasma glucose and triglycerides after 14 days of oral dosing; format: in vivo; conditions: female db/db mice, 10 mg/kg orally once daily for 14 days, fasted plasma on day 15
Procedure: 8 week old female db/db mice were dosed orally once daily for 14 days at 10 mg/kg with the Example 1a-1c compounds using a vehicle comprised of 5% 1-methyl-pyrrolidinone, 20% polyethylene glycol (PEG400) and 75% 20 mM dibasic sodium phosphate. Plasma samples were obtained from mice fasted overnight (18 hours after last administration of compound) on day 15. The plasma glucose and triglycerides levels were determined and the percentage reductions in both parameters of drug-treated animal relative to vehicle-treated animals are shown in the table below.
It is known by one skilled in the art that the compounds of the present invention normalize plasma glucose levels and decrease plasma triglycerides at doses ≧10 mg/kg in rodent models of type 2 diabetes (e.g. the db/db mouse). The typical administration of said compounds is expected to be between 0.1 to 2,000 mg/day in the clinical setting, and is preferably between 0.5 to 100 mg/day. (Reference for db/db mouse as an in vivo rodent model for antidiabetic efficacy: T. Harrity et al, Diabetes, 2006, 55, 240-248).

SMILES	EC50 [1] [nM]	Emax at 1 µM [1] [%]	melting point [°C]	EC50 [2] [nM]	Emax at 1 µM [2] [%]	% Reduction in Plasma Glucose vs Vehicle-control group [3] [%]	% Reduction in Plasma Triglycerides vs Vehicle-control group [3] [%]
Cc1ccc(OC(=O)N(CC(=O)O)[C@@H](C)c2ccc(OCc3nc(-c4ccccc4)oc3C)cc2)cc1F [Compound 1a]	6 ± 1	92	152.6	3 ± 1	128	−45	−45
Cc1cc(OC(=O)N(CC(=O)O)[C@@H](C)c2ccc(OCc3nc(-c4ccccc4)oc3C)cc2)ccc1F [Compound 1b]	8 ± 2	95	–	4 ± 2	126	−34	−50
COc1cccc(OC(=O)N(CC(=O)O)[C@@H](C)c2ccc(OCc3nc(-c4ccc(C)cc4)oc3C)cc2)c1 [Compound 1c]	6 ± 2	82	–	5 ± 2	124	−34	−61
